Laboratory results taken from ChEMBL document CHEMBL1201862, “PubChem BioAssay data set” (2004).
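Tested at 5 concentrations; 48 h exposure; 96-well plates; endpoints linearly interpolated, else capped at highest concentration. Here, GI50 denotes the concentration required for 50% inhibition of growth.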 Calls of active or inactive are those of the source. Cut-off read from the data, not from the text of the source: active = GI50 up to about 1.1 µM and inactive = higher.

Legend:
Assay in all cases: NCI tumour cell line growth inhibition, 48 h
K562 = system: K562
MCF7 = system: MCF7
HCC 2998 = system: HCC 2998
MDA-MB-231 = system: MDA-MB-231
MDA-MB-435 = system: MDA-MB-435
SW-620 = system: SW-620
SK-MEL-28 = system: SK-MEL-28
A498 = system: A498
KM12 = system: KM12
PC-3 = system: PC-3
SN12C = system: SN12C
HOP-62 = system: HOP-62
OVCAR-5 = system: OVCAR-5
RXF 393 = system: RXF 393
SK-MEL-2 = system: SK-MEL-2
IGROV-1 = system: IGROV-1
HCT-15 = system: HCT-15
OVCAR-4 = system: OVCAR-4
OVCAR-8 = system: OVCAR-8
CCRF-CEM = system: CCRF-CEM

SMILES | GI50 (K562) | GI50 (MCF7) | GI50 (HCC 2998) | GI50 (MDA-MB-231) | GI50 (MDA-MB-435) | GI50 (SW-620) | GI50 (SK-MEL-28) | GI50 (A498) | GI50 (KM12) | GI50 (PC-3) | GI50 (SN12C) | GI50 (HOP-62) | GI50 (OVCAR-5) | GI50 (RXF 393) | GI50 (SK-MEL-2) | GI50 (IGROV-1) | GI50 (HCT-15) [µM] | GI50 (OVCAR-4) | GI50 (OVCAR-8) | GI50 (CCRF-CEM)
Nc1nc(-c2cccs2)cs1 | > 100 µM (inactive) | 91.8 µM (inactive) | 57.9 µM (inactive) | 60.4 µM (inactive) | 79.8 µM (inactive) | > 100 µM (inactive) | > 100 µM (inactive) | > 100 µM (inactive) | 81.7 µM (inactive) | 67.9 µM (inactive) | > 100 µM (inactive) | > 100 µM (inactive) | > 100 µM (inactive) | > 100 µM (inactive) | > 100 µM (inactive) | 47.3 µM (inactive) | 83.4 | > 100 µM (inactive) | 58.7 µM (inactive) | 29 µM (inactive)
Cc1c(OCc2cccc3ccccc23)ccc2c(=O)cc(SCCN3CCOCC3)oc12 | > 100 µM (inactive) | > 100 µM (inactive) | > 100 µM (inactive) | > 100 µM (inactive) | > 100 µM (inactive) | > 100 µM (inactive) | > 100 µM (inactive) | > 100 µM (inactive) | > 100 µM (inactive) | > 100 µM (inactive) | > 100 µM (inactive) | > 100 µM (inactive) | 78.2 µM (inactive) | > 100 µM (inactive) | > 100 µM (inactive) | > 100 µM (inactive) | > 100 | 38.5 µM (inactive) | > 100 µM (inactive) | > 100 µM (inactive)
Cc1cn2c(C)csc2c1P(=O)(OC(C)C)OC(C)C | > 100 µM (inactive) | > 100 µM (inactive) | > 100 µM (inactive) | 31.3 µM (inactive) | > 100 µM (inactive) | > 100 µM (inactive) | > 100 µM (inactive) | > 100 µM (inactive) | > 100 µM (inactive) | > 100 µM (inactive) | > 100 µM (inactive) | > 100 µM (inactive) | > 100 µM (inactive) | > 100 µM (inactive) | > 100 µM (inactive) | > 100 µM (inactive) | > 100 | > 100 µM (inactive) | > 100 µM (inactive) | > 100 µM (inactive)
Cn1c(=O)c2c(nc(Nc3ccc(Cl)cc3)n3c(=O)n(-c4ccccc4)c(=O)n23)n(C)c1=O | > 100 µM (inactive) | > 100 µM (inactive) | > 100 µM (inactive) | > 100 µM (inactive) | > 100 µM (inactive) | > 100 µM (inactive) | > 100 µM (inactive) | > 100 µM (inactive) | > 100 µM (inactive) | > 100 µM (inactive) | > 100 µM (inactive) | > 100 µM (inactive) | > 100 µM (inactive) | > 100 µM (inactive) | > 100 µM (inactive) | > 100 µM (inactive) | > 100 | > 100 µM (inactive) | > 100 µM (inactive) | > 100 µM (inactive)
COc1cc2c(cc1O)C(=O)O[C@@H]1CC=C3CCN(C)[C@H]3[C@H]21 | > 25 µM (inactive) | > 25 µM (inactive) | > 25 µM (inactive) | > 25 µM (inactive) | > 25 µM (inactive) | > 25 µM (inactive) | > 25 µM (inactive) | > 25 µM (inactive) | > 25 µM (inactive) | > 25 µM (inactive) | > 25 µM (inactive) | > 25 µM (inactive) | > 25 µM (inactive) | > 25 µM (inactive) | > 25 µM (inactive) | > 25 µM (inactive) | > 25 | > 25 µM (inactive) | > 25 µM (inactive) | > 25 µM (inactive)
COC(=O)/C=C(C)/C=C\COC1CCCCO1 (stereo not given) | > 100 µM (inactive) | > 100 µM (inactive) | > 100 µM (inactive) | > 100 µM (inactive) | > 100 µM (inactive) | > 100 µM (inactive) | > 100 µM (inactive) | > 100 µM (inactive) | > 100 µM (inactive) | > 100 µM (inactive) | > 100 µM (inactive) | > 100 µM (inactive) | > 100 µM (inactive) | > 100 µM (inactive) | > 100 µM (inactive) | > 100 µM (inactive) | > 100 | > 100 µM (inactive) | > 100 µM (inactive) | > 100 µM (inactive)
CNCCCNC(=S)Cn1cc(C)c(=O)[nH]c1=O | > 42.2 µM (inactive) | > 31.8 µM (inactive) | > 52.6 µM (inactive) | > 60.4 µM (inactive) | > 26.1 µM (inactive) | > 56.4 µM (inactive) | > 56.9 µM (inactive) | > 55.6 µM (inactive) | > 48.1 µM (inactive) | > 45.5 µM (inactive) | > 100 µM (inactive) | > 54.3 µM (inactive) | > 69.5 µM (inactive) | > 60.3 µM (inactive) | > 45.2 µM (inactive) | > 39.5 µM (inactive) | > 42.7 | > 53.2 µM (inactive) | > 26.6 µM (inactive) | > 30.6 µM (inactive)
N#Cc1c(=O)c2cc([N+](=O)[O-])ccc2n2c1[nH]c1ccccc12 | 3.78 µM (inactive) | 6.92 µM (inactive) | 7.21 µM (inactive) | 4.76 µM (inactive) | 10.3 µM (inactive) | 8.71 µM (inactive) | 4.48 µM (inactive) | 1.71 µM (inactive) | 5.85 µM (inactive) | 4 µM (inactive) | 9.93 µM (inactive) | 9.55 µM (inactive) | 6 µM (inactive) | 3.55 µM (inactive) | 5.25 µM (inactive) | 12.5 µM (inactive) | 7.64 | 3.38 µM (inactive) | 5.27 µM (inactive) | 5.37 µM (inactive)
CC(O)C(NC(=O)C(CS)NC(=O)C(CO)NC(=O)C(CCCCN)NC(=O)C(Cc1c[nH]c2ccccc12)NC(=O)C(Cc1ccc(O)cc1)NC(=O)C(CS)NC(=O)C(N)Cc1ccccc1)C(N)=O (stereo not given) | > 25 µM (inactive) | > 25 µM (inactive) | > 25 µM (inactive) | > 25 µM (inactive) | > 25 µM (inactive) | > 25 µM (inactive) | 26.9 µM (inactive) | > 25 µM (inactive) | > 25 µM (inactive) | > 25 µM (inactive) | > 25 µM (inactive) | > 25 µM (inactive) | > 25 µM (inactive) | > 25 µM (inactive) | > 25 µM (inactive) | > 25 µM (inactive) | > 25 | 8.53 µM (inactive) | > 25 µM (inactive) | > 25 µM (inactive)
N#Cc1c(-c2ccc([N+](=O)[O-])cc2)cc(-c2ccc(Nc3ccnc4cc(C(F)(F)F)ccc34)cc2)nc1N | 3.64 µM (inactive) | 2.59 µM (inactive) | 14.1 µM (inactive) | 18.9 µM (inactive) | 9.14 µM (inactive) | 8.3 µM (inactive) | 25.5 µM (inactive) | > 48.3 µM (inactive) | 7.19 µM (inactive) | 18.9 µM (inactive) | 17.9 µM (inactive) | 21.3 µM (inactive) | 30.9 µM (inactive) | 19.1 µM (inactive) | > 41.3 µM (inactive) | 8.53 µM (inactive) | 5.96 | 7.6 µM (inactive) | 20.1 µM (inactive) | 1.88 µM (inactive)
O=C(C/C(=N/O)C(F)(F)F)c1cccs1 | > 100 µM (inactive) | > 100 µM (inactive) | > 100 µM (inactive) | > 100 µM (inactive) | > 100 µM (inactive) | > 100 µM (inactive) | > 100 µM (inactive) | > 100 µM (inactive) | > 100 µM (inactive) | > 100 µM (inactive) | > 100 µM (inactive) | > 100 µM (inactive) | > 100 µM (inactive) | > 100 µM (inactive) | 30.8 µM (inactive) | > 100 µM (inactive) | > 100 | > 100 µM (inactive) | > 100 µM (inactive) | > 100 µM (inactive)
COc1ccc(-c2csc3c2-n2cccc2C3=O)cc1 | < 0.0285 µM (active) | 0.18 µM (active) | 0.344 µM (active) | < 0.0375 µM (active) | 0.0132 µM (active) | < 0.0232 µM (active) | 0.406 µM (active) | 0.698 µM (active) | 0.0401 µM (active) | < 0.0367 µM (active) | 0.0885 µM (active) | 0.0656 µM (active) | 34 µM (inactive) | 0.07 µM (active) | 0.366 µM (active) | 0.258 µM (active) | 0.0653 | 2.07 µM (inactive) | 0.0867 µM (active) | 0.0242 µM (active)
